Source: publication PMC7530392, “A label‐free impedance assay in endothelial cells differentiates the activation and desensitization properties of clinical S1P1 agonists” (FEBS Open Bio, 2020)
“Also recorded” adds a separate entry of the source. Read-outs that look alike come from different tables or passages of the source.

Assays:
S1P1 [1] = biological target: T1, S1P1 (Homo sapiens, UniProt P21453); test: Desensitization of S1P-induced BNCI response in HUVEC (second stimulation with 80 nM S1P); type: cell-based; details: for Desensitization Max: S1P-induced BNCI response curve maximum; for Desensitization Max / Desensitization Min / Desensitization Hill slope: arithmetic mean; for Desensitization Min: S1P-induced BNCI response curve minimum; for IC50: absolute 50% reduction of control S1P (80 nM)-induced BNCI AUC0–60 min after 5.5 h wash, geometric mean, read-out: Desensitization IC50 [95% CI]
T1 construct: host or cells: HUVEC (pooled donors)
T1 sequence (P21453 whole entry): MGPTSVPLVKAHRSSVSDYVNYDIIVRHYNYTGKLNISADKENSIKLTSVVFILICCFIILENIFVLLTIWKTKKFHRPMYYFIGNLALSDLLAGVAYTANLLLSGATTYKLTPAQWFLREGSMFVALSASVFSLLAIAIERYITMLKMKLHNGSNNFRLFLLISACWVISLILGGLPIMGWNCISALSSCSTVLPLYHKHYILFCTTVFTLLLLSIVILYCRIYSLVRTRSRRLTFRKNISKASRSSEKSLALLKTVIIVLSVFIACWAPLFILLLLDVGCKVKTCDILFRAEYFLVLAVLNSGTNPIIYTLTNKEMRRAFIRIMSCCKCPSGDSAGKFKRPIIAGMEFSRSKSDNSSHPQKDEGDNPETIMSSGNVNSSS
Procedure: (§1) HUVECs from pooled donors (PromoCell GmbH, Heidelberg, Germany, C‐12203) were seeded at 10 000 cells per well, in complete medium (C2210, C39210) containing 2% fetal bovine serum (FBS), in 96‐well collagen‐I coated E‐plates. Cells were allowed to attach and proliferate for 6 h, followed by overnight serum starvation in medium containing 0.1% FBS. Electrical impedance was measured continuously with RTCA‐MP station (xCELLigence RTCA, ACEA‐Biosciences, San Diego, CA, USA), according to the manufacturer’s protocol, and expressed as baseline normalized cell index (BNCI) using RTCA2.0 software. Impedance measurements were analyzed for 60 min following addition of test compounds or DMSO control, and the early (peak response at 8–10 min) and late response (at 60 min) was used for further analysis. Cells were then washed in medium containing 0.1% FBS for 5.5 h. The effect of each test compound to desensitize the response to a second stimulation with the natural ligand S1P (80 nM) was measured in the same wells and expressed as the AUC0–60 min of the S1P‐induced BNCI response. […] The baseline for the BNCI calculation was the respective vehicle responses for the first (0.1% DMSO) and second stimulations (2.5 µg·mL^−1 BSA). When tested, 10 µM GRK2 inhibitor was pretreated with cells for 2 h prior to addition of test compounds and its effect on early and late responses measured as above. All experiments were repeated on at least 3 separate occasions.
The activation‐to‐desensitization ratio was expressed as IC50/EC50 for early phase. EC50, IC50, and activation‐to‐desensitization ratio were reported as geometric mean with 95% confidence intervals.

[2] = cited from earlier work
S1P1 [3] = biological target: T1, S1P1; test: Label-free impedance assay in HUVEC, first stimulation (early and late BNCI response); type: cell-based; details: for Late phase Max: determined manually for bell-shaped responses; for Early phase Max: BNCI curve maximum; for Early phase Max / Early phase Min / Early phase Hill slope: early response; for Early phase Min: BNCI curve minimum; for EC50: first stimulation, geometric mean; for Emax: read-out: Maximum BNCI in late response as % of E max in early response; for Impedance profile in the presence of the GRK2 inhibitor: 10 µM GRK2 inhibitor, over 60 min
Procedure: as §1
Effective concentration corresponding to half of the difference between the maximum and minimum effect (EC50) of agonists was determined with SAS procedure NLIN in SAS system release 9.1 under UNIX via BIOSTAT@T‐SPEED‐LTS v2.0 internal software using the 4‐parameter logistical model.

lymphocytes = details: approved dose in MS; no reference given; cited from earlier work
human S1P1 = test: β-arrestin recruitment assay in PathHunter cells overexpressing human S1P1; type: cell-based; details: read-out: IC50 inhibition of β-arrestin recruitment
Procedure: The cellular potency of the GRK2 inhibitor was determined using a β‐arrestin recruitment assay in PathHunter® cells overexpressing human S1P1 (Eurofins DiscoverX Corporation, San Diego, CA, USA; catalogue number 93‐0207C2) as described. The mean IC50 from at least 3 separate experiments was reported.

recombinant human GRK2 = biological target: T2, recombinant human GRK2 (Homo sapiens, UniProt P25098); test: 33P-ATP flash plate kinase assay; type: biochemical; details: 3 µM ATP, biotin-[…] substrate
T2 construct: purchased Thermo Fisher PR4694A
T2 sequence (P25098 1-689): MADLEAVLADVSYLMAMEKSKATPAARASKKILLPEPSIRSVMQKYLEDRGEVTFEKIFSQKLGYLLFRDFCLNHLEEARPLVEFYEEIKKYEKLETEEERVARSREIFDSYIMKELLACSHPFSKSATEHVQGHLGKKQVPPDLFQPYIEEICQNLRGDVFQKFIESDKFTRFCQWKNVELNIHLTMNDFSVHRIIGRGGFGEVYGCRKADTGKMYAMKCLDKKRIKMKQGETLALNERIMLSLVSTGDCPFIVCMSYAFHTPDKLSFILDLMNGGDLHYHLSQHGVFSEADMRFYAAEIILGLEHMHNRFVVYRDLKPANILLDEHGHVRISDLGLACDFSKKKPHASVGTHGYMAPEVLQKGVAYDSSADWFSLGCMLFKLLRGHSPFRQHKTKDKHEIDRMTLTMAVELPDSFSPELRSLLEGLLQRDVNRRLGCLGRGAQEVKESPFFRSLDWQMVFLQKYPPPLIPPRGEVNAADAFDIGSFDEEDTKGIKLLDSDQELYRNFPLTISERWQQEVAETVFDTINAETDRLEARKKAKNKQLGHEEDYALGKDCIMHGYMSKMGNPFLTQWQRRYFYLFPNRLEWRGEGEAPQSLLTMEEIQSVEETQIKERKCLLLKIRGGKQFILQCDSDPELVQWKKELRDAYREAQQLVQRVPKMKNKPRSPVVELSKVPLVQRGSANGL

[4] = BNCI at 60 min, arithmetic mean
[5] = BNCI peak response at 8–10 min, read-out: Early phase EC50 [95% CI]
[6] = late (60 min) versus early phase

Structure (SMILES)	Shape of concentration–effect relationship in the late response (S1P1 [3]; BNCI at 60 min)	Late phase Max (S1P1 [3]; [4])	Early phase Max (S1P1 [3]; arithmetic mean)	Early phase Min (S1P1 [3]; arithmetic mean)	EC50 (S1P1 [3]; [5]) [µM]	Early phase Hill slope (S1P1 [3]; arithmetic mean)	Emax (S1P1 [3]; [6]) [%]	Desensitization Max (S1P1 [1])	Desensitization Min (S1P1 [1])	IC50 (S1P1 [1]) [µM]	Desensitization Hill slope (S1P1 [1])	Volume of distribution in human [2]	Lymphocyte reduction (lymphocytes)	Impedance profile in the presence of the GRK2 inhibitor (S1P1 [3])	further results
O=C(NCc1ccc2onc(NCc3ccccc3C(F)(F)F)c2c1)c1ccc2[nH]ncc2c1 [GRK2 inhibitor, 1H‐Indazole‐5‐carboxylic acid [3‐(2‐trifluoromethyl‐benzylamino)‐1,2‐benzisoxazol‐5‐ylmethyl]‐amide]															IC50 (human S1P1): 1.1 µM; IC50 (recombinant human GRK2): 0.044 µM
CCCCCCCCc1ccc(CCC(N)(CO)CO)cc1 [fingolimod]													70–80%		
Cc1cc(-c2nc3cnc(Oc4cccc(Cl)c4)nc3o2)cc(C)c1OCC(=O)O [SAR247799]		0.425	0.527	0.101	0.0261	1.0		89.3	1.1	2.98	−1.9	7–23 [13] L		sustained BNCI increase with no signal decline over 60 min	Late phase Hill slope (S1P1 [3]; [4]): 0.7; Late phase Min (S1P1 [3]; [4]): 0.045; EC50 (S1P1 [3]; BNCI at 60 min, read-out: Late phase EC50 [95% CI]): 0.0428 µM; Maximum BNCI in late response as % of E max in early response (S1P1 [3]; [6]): 81%; Further increase of late response by presence of GRK inhibitor (S1P1 [3]; late response, 10 µM GRK inhibitor pretreated 2 h): 2 fold

Second part, led by results:

Shape of concentration–effect relationship in the late response (S1P1 [3]; BNCI at 60 min)	Late phase Max (S1P1 [3]; [4])	Early phase Max (S1P1 [3]; arithmetic mean)	Early phase Min (S1P1 [3]; arithmetic mean)	EC50 (S1P1 [3]; [5]) [µM]	Early phase Hill slope (S1P1 [3]; arithmetic mean)	Emax (S1P1 [3]; [6]) [%]	Structure (SMILES)	Desensitization Max (S1P1 [1])	Desensitization Min (S1P1 [1])	IC50 (S1P1 [1]) [µM]	Desensitization Hill slope (S1P1 [1])	Volume of distribution in human [2]	Lymphocyte reduction (lymphocytes)	Impedance profile in the presence of the GRK2 inhibitor (S1P1 [3])	further results
bell‐shaped	0.468	0.582	0.175	0.00241	1.2	81	CCC/N=C1\S/C(=C\c2ccc(OC[C@H](O)CO)c(Cl)c2)C(=O)N1c1ccccc1C [Ponesimod, ponesimod]	79.3	−38.2	0.0184	−0.9	160 [37] L			Activation-to-desensitization ratio [95% CI] (S1P1 [1]; desensitization IC50 / early phase EC50, geometric mean): 7.66 (3.41–17.2); S1P-induced BNCI response after preincubation at the highest concentrations tested (S1P1 [1]; second stimulation with S1P): fall below the baseline
bell‐shaped	0.150	0.440	0.012	0.000977	0.7	34	CCc1cc(/C(C)=N/OCc2ccc(C3CCCCC3)c(C(F)(F)F)c2)ccc1CN1CC(C(=O)O)C1 [Siponimod, siponimod]	96.8	−16.3	0.000167	−1.0		70–80%	sustained BNCI increase with no signal decline over 60 min	Barrier effect in late response in the presence of the GRK inhibitor (S1P1 [3]; 10 µM GRK inhibitor, same concentrations that gave negative BNCI without inhibitor): improved barrier integrity; Late response BNCI at highest concentrations (barrier effect) (S1P1 [3]; 60 min, absence of GRK inhibitor): endothelial barrier disruption; also recorded: concentration‐dependent decrease to negative BNCI values
bell‐shaped	0.234	0.461	0.188		1.1	51	CC(C)Oc1ccc(-c2nc(-c3cccc4c3CC[C@@H]4NCCO)no2)cc1C#N [Ozanimod, ozanimod]	91.5	−13.9		−1.5	5590 [5] L	55%		
